Experimental data as given in article PMC12106395, “HmuY proteins of the Porphyromonas genus show diversity in heme-binding properties” (Frontiers in Cellular and Infection Microbiology, 2025).

Assays:
HusA^Pg = biological target: T1, HusA^Pg (Porphyromonas gingivalis, UniProt Q7MSY3); assay: UV-visible difference absorbance spectroscopy; format: binding; conditions: 5 uM protein, 5 uM PPIX, PBS pH 7.4, room temperature; complex seen by spectroscopy only
T1 construct: gene PG_2227; 8xHis-MBP tag cut off with Factor Xa; E. coli host; strain of the plasmid only in supplement (W83 is the BLAST query strain)

HmuY^Bf-2 = biological target: T2, HmuY^Bf-2 (Bacteroides fragilis, UniProt Q5LGH3); assay: UV-visible difference absorbance spectroscopy; semi-denaturing PAGE with fluorescence detection; format: binding; conditions: 5 uM protein, 5 uM PPIX, PBS pH 7.4, room temperature
T2 construct: gene BF9343_0985; 8xHis-MBP tag cut off with Factor Xa; E. coli host
T2 sequence (Q5LGH3 entry or part of it): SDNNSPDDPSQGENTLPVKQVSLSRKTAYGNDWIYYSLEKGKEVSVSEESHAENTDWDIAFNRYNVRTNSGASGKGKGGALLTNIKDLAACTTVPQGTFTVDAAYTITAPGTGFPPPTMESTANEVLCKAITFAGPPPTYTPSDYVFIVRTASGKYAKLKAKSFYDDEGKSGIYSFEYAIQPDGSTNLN

T1 sequence (Q7MSY3 entry or part of it): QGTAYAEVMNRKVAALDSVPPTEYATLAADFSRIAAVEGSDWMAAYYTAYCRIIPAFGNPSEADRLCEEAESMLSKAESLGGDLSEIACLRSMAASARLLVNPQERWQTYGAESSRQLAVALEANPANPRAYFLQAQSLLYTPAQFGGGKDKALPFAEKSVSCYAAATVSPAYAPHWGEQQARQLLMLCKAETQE

Question: Which “UV-visible difference absorbance spectroscopy” value (HusA^Pg) does the source give for `C=CC1=C(C)c2cc3[nH]c(cc4nc(cc5[nH]c(cc1n2)c(C)c5CCC(=O)O)C(CCC(=O)O)=C4C)c(C)c3C=C` [PPIX] here?
Answer: Its value is “HmuY^Bf-2, which, similar to HusA^Pg, binds both heme and PPIX”.

Question: And the “UV-visible difference absorbance spectroscopy; semi-denaturing PAGE with fluores” value (HmuY^Bf-2)?
Answer: Its value is “PPIX binding by HmuY^Bf-2 were detected after electrophoretic separation of proteins and porphyrins”.
